{
  "source": "the supplement of paper PMC10290057",
  "key": {"HCT116 [1]": {"system": "HCT116", "assay": "AC50 cell viability (CellTiter-Glo); higher = less potent", "settings": "48 h"}, "HCT116 [2]": {"system": "HCT116", "assay": "efficacy (fitted maximal change in viability relative to DMSO control); higher = less cytotoxic (negative = loss of viability)", "settings": "48 h"}},
  "note": "Counter-ions that a name gives are not always drawn.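 For AC50 cell viability (CellTiter-Glo) in this document: HCT116 colorectal carcinoma cells screened at five concentrations per compound, luminescent viability scaled between DMSO wells and empty wells on each plate, curves fitted per compound.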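 For efficacy (fitted maximal change in viability relative to DMSO control) in this document: Luminescence-based viability readout, five doses per compound, normalized against on-plate DMSO and empty-well controls, followed by dose-response curve fitting for every drug.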",
  "data": [
    {"compound": "Cc1nc(N)ncc1-c1nc(N2CCOCC2)c2sc(C(C)(C)O)cc2n1", "note": "[GNE-490]", "values": [
      {"measurement": "AC50 cell viability", "setting": "HCT116 [1]", "value": 2.63, "unit": "µM"},
      {"measurement": "efficacy", "setting": "HCT116 [2]", "value": -66.6, "unit": "%"}
    ]},
    {"compound": "CN(C[C@@H]1COCCO1)[S+]([O-])(=O)NC2=CC3=C(C=C2)\\C=C/C4=C(C=C(C=N4)C5=C[N](C)N=C5)C3=O", "note": "[MK-2461]", "values": [
      {"measurement": "AC50 cell viability", "setting": "HCT116 [1]", "value": 18.6, "unit": "µM"},
      {"measurement": "efficacy", "setting": "HCT116 [2]", "value": -103, "unit": "%"}
    ]},
    {"compound": "C=CC(=O)N1CCC(CNc2ncnc(N)c2-c2ccc(Oc3ccccc3)cc2)CC1", "note": "[Evobrutinib]", "values": [
      {"measurement": "AC50 cell viability", "setting": "HCT116 [1]", "value": 4.68, "unit": "µM"},
      {"measurement": "efficacy", "setting": "HCT116 [2]", "value": -43.5, "unit": "%"}
    ]},
    {"compound": "COC(=O)Nc1nc2cc(C(=O)c3cccs3)ccc2[nH]1", "note": "[Nocodazole]", "values": [
      {"measurement": "AC50 cell viability", "setting": "HCT116 [1]", "value": 0.166, "unit": "µM"},
      {"measurement": "efficacy", "setting": "HCT116 [2]", "value": -65.7, "unit": "%"}
    ]},
    {"compound": "c1ccc(CNc2nc(NCc3ccccc3)c3ccccc3n2)cc1", "values": [
      {"measurement": "AC50 cell viability", "setting": "HCT116 [1]", "value": 8.33, "unit": "µM"},
      {"measurement": "efficacy", "setting": "HCT116 [2]", "value": -98.7, "unit": "%"}
    ]},
    {"compound": "CC1(N)CCN(c2cccnc2NC(=O)c2nc(-c3ncccc3C(F)(F)F)cnc2N)CC1", "note": "[LXS-196]", "values": [
      {"measurement": "AC50 cell viability", "setting": "HCT116 [1]", "value": 16.6, "unit": "µM"},
      {"measurement": "efficacy", "setting": "HCT116 [2]", "value": -70.1, "unit": "%"}
    ]},
    {"compound": "COC(=O)N[C@@H](C)CNc1nccc(-c2cn(C(C)C)nc2-c2cc(Cl)cc(N[S+](C)(=O)[O-])c2F)n1", "note": "[Encorafenib]", "values": [
      {"measurement": "AC50 cell viability", "setting": "HCT116 [1]", "value": 4.17, "unit": "µM"},
      {"measurement": "efficacy", "setting": "HCT116 [2]", "value": -52.7, "unit": "%"}
    ]},
    {"compound": "O=[N+]([O-])c1cnc(Sc2nnc(O)n2-c2ccc3c(c2)OCCO3)s1", "note": "[BI-78D3]", "values": [
      {"measurement": "AC50 cell viability", "setting": "HCT116 [1]", "value": 11.8, "unit": "µM"},
      {"measurement": "efficacy", "setting": "HCT116 [2]", "value": -94.7, "unit": "%"}
    ]},
    {"compound": "C[C@@H](Oc1cc(-c2cnn(C3CCNCC3)c2)cnc1N)c1c(Cl)ccc(F)c1Cl", "note": "[Crizotinib]", "values": [
      {"measurement": "AC50 cell viability", "setting": "HCT116 [1]", "value": 4.17, "unit": "µM"},
      {"measurement": "efficacy", "setting": "HCT116 [2]", "value": -100, "unit": "%"}
    ]},
    {"compound": "O=C([O-])C[C@H](O)C[C@H](O)/C=C/c1c(C2CC2)nc2ccccc2c1-c1ccc(F)cc1", "note": "[Pitavastatin calcium]", "values": [
      {"measurement": "AC50 cell viability", "setting": "HCT116 [1]", "value": 14.8, "unit": "µM"},
      {"measurement": "efficacy", "setting": "HCT116 [2]", "value": -103, "unit": "%"}
    ]},
    {"compound": "Cc1cc(Nc2cc(N3CCN(C)CC3)nc(/C=C/c3ccccc3)n2)n[nH]1", "values": [
      {"measurement": "AC50 cell viability", "setting": "HCT116 [1]", "value": 5.9, "unit": "µM"},
      {"measurement": "efficacy", "setting": "HCT116 [2]", "value": -99.9, "unit": "%"}
    ]},
    {"compound": "Cc1ccc(NC(=O)Nc2cc(C(F)(F)F)ccc2F)cc1Nc1ccc2c(c1)NC(=O)/C2=C\\c1ccc[nH]1", "note": "[GNF-5837]", "values": [
      {"measurement": "AC50 cell viability", "setting": "HCT116 [1]", "value": 14.8, "unit": "µM"},
      {"measurement": "efficacy", "setting": "HCT116 [2]", "value": -97.5, "unit": "%"}
    ]},
    {"compound": "COc1ccc(CCN(C)CCCOc2ccc([S+](=O)([O-])c3c(C(C)C)c4ccccc4n3C)cc2)cc1OC", "values": [
      {"measurement": "AC50 cell viability", "setting": "HCT116 [1]", "value": 8.33, "unit": "µM"},
      {"measurement": "efficacy", "setting": "HCT116 [2]", "value": -91.8, "unit": "%"}
    ]},
    {"compound": "COc1cc2c(Nc3ccc(Cl)c(Cl)c3F)ncnc2cc1OC[C@@H]1C[C@@H]2CN(C)C[C@@H]2C1", "note": "[Tesevatinib]", "values": [
      {"measurement": "AC50 cell viability", "setting": "HCT116 [1]", "value": 10.5, "unit": "µM"},
      {"measurement": "efficacy", "setting": "HCT116 [2]", "value": -119, "unit": "%"}
    ]},
    {"compound": "CC(C)CC(=O)Nc1n[nH]c2c1CN(C(=O)C1CCN(C)CC1)C2(C)C", "values": [
      {"measurement": "AC50 cell viability", "setting": "HCT116 [1]", "value": 0.186, "unit": "µM"},
      {"measurement": "efficacy", "setting": "HCT116 [2]", "value": -68.7, "unit": "%"}
    ]},
    {"compound": "O=C1Nc2ccc(Cl)cc2[C@@](C#CC2CC2)(C(F)(F)F)O1", "note": "[Efavirenz]", "values": [
      {"measurement": "AC50 cell viability", "setting": "HCT116 [1]", "value": 26.3, "unit": "µM"},
      {"measurement": "efficacy", "setting": "HCT116 [2]", "value": -97.1, "unit": "%"}
    ]},
    {"compound": "COCCNCCc1cccc(Nc2ncc3c(n2)-c2ccccc2[C@H](c2ccccc2F)C3)c1", "note": "[Derazantinib]", "values": [
      {"measurement": "AC50 cell viability", "setting": "HCT116 [1]", "value": 10.5, "unit": "µM"},
      {"measurement": "efficacy", "setting": "HCT116 [2]", "value": -95.8, "unit": "%"}
    ]},
    {"compound": "NC1=NC=C(C=C1)C2=CC=C3N=CC\\4=C(N(C(=O)\\C=C4)C5=CC(=CC=C5)C(F)(F)F)C3=C2", "note": "[Torin-2]", "values": [
      {"measurement": "AC50 cell viability", "setting": "HCT116 [1]", "value": 0.166, "unit": "µM"},
      {"measurement": "efficacy", "setting": "HCT116 [2]", "value": -96.6, "unit": "%"}
    ]},
    {"compound": "C=CC(=O)Nc1cccc(Sc2nc(Nc3ccc(N4CCN(C)CC4)cc3)ncc2Cl)c1", "note": "[WZ-8040]", "values": [
      {"measurement": "AC50 cell viability", "setting": "HCT116 [1]", "value": 7.42, "unit": "µM"},
      {"measurement": "efficacy", "setting": "HCT116 [2]", "value": -108, "unit": "%"}
    ]},
    {"compound": "CC1(C)C(N(O)C(=O)Nc2ccc(Cl)cc2)N(c2ccc(Cl)cc2)C(=O)N1CC(=O)N/N=C/C=C/c1ccc([N+](=O)[O-])o1", "note": "(stereo not drawn) [Eeyarestatin I]", "values": [
      {"measurement": "AC50 cell viability", "setting": "HCT116 [1]", "value": 8.33, "unit": "µM"},
      {"measurement": "efficacy", "setting": "HCT116 [2]", "value": -89.8, "unit": "%"}
    ]},
    {"compound": "COC(=O)Nc1nc2cc(Sc3ccccc3)ccc2[nH]1", "note": "[Fenbendazole]", "values": [
      {"measurement": "AC50 cell viability", "setting": "HCT116 [1]", "value": 1.05, "unit": "µM"},
      {"measurement": "efficacy", "setting": "HCT116 [2]", "value": -79.7, "unit": "%"}
    ]},
    {"compound": "NC(CSC(c1ccccc1)(c1ccccc1)c1ccccc1)C(=O)O", "note": "(stereo in doubt) [S-Trityl-L-cysteine]", "values": [
      {"measurement": "AC50 cell viability", "setting": "HCT116 [1]", "value": 23.5, "unit": "µM"},
      {"measurement": "efficacy", "setting": "HCT116 [2]", "value": -53.6, "unit": "%"}
    ]},
    {"compound": "C[C@@H](OC[C@@]1(c2ccccc2)CC[C@]2(CCC(=O)N2)CN1)c1cc(C(F)(F)F)cc(C(F)(F)F)c1", "note": "[Rolapitant]", "values": [
      {"measurement": "AC50 cell viability", "setting": "HCT116 [1]", "value": 13.2, "unit": "µM"},
      {"measurement": "efficacy", "setting": "HCT116 [2]", "value": -111, "unit": "%"}
    ]},
    {"compound": "CNC(=O)C1=CC=C(C)C(=C1)N2C(=C/C(=C(/Br)C2=O)OCC3=C(F)C=C(F)C=C3)\\C", "values": [
      {"measurement": "AC50 cell viability", "setting": "HCT116 [1]", "value": 16.6, "unit": "µM"},
      {"measurement": "efficacy", "setting": "HCT116 [2]", "value": -41.4, "unit": "%"}
    ]},
    {"compound": "CCCCCC1=CC(=C([C@@H]2\\C=C(C)/CC[C@H]2C(C)=C)C(=C1)O)O", "note": "[Cannabidiol]", "values": [
      {"measurement": "AC50 cell viability", "setting": "HCT116 [1]", "value": 20.9, "unit": "µM"},
      {"measurement": "efficacy", "setting": "HCT116 [2]", "value": -84.5, "unit": "%"}
    ]},
    {"compound": "Cc1cc(F)c(C(=O)Nc2cccc(-c3nncn3C(C)C)n2)cc1-n1cnc(C2CC2)c1", "note": "[Selonsertib]", "values": [
      {"measurement": "AC50 cell viability", "setting": "HCT116 [1]", "value": 16.6, "unit": "µM"},
      {"measurement": "efficacy", "setting": "HCT116 [2]", "value": -73.8, "unit": "%"}
    ]},
    {"compound": "Cc1cc(C)c(C/N=C(\\O)c2cc(-c3ccc(N4CCN(C)CC4)nc3)cc3c2c(C)cn3C(C)C)c(O)n1", "note": "[GSK-503]", "values": [
      {"measurement": "AC50 cell viability", "setting": "HCT116 [1]", "value": 23.5, "unit": "µM"},
      {"measurement": "efficacy", "setting": "HCT116 [2]", "value": -103, "unit": "%"}
    ]},
    {"compound": "CNCCCC12CCC(c3ccccc31)c1ccccc12", "note": "[Maprotiline hydrochloride]", "values": [
      {"measurement": "AC50 cell viability", "setting": "HCT116 [1]", "value": 20.9, "unit": "µM"},
      {"measurement": "efficacy", "setting": "HCT116 [2]", "value": -93.9, "unit": "%"}
    ]},
    {"compound": "CNC(=O)c1c(F)cccc1Nc1nc(Nc2cc3c(cc2OC)CCN3C(=O)CN(C)C)nc2[nH]ccc12", "values": [
      {"measurement": "AC50 cell viability", "setting": "HCT116 [1]", "value": 5.25, "unit": "µM"},
      {"measurement": "efficacy", "setting": "HCT116 [2]", "value": -131, "unit": "%"}
    ]}
  ]
}
